Tests used:
HLA-B*57:01fos [1] = target: T1, HLA-B*57:01fos (Homo sapiens, UniProt P01889, D201E/D98Y/E176V/E187L/E204Q/E69M/E70A/G107R/I90N/K202T/L105A/L119I/N104I/N87E/Q89R/Q94S/R106L/R155S/R180L/R86G/S101N/S121V/S35A/S48A/T118I/V36M/Y140S/Y91M); test: Fluorescence polarisation dissociation rate measurements; assay type: binding; conditions: for Effect of abacavir on dissociation of the peptide from HLA-B*57:01fos: 60 µM abacavir with competing peptide; for Half life (hours) of dissociation from HLA-B*57:01fos, Comp+Abacavir / Half life (hours) of dissociation from HLA-B*57:01fos, Comp+Tapasin / Half life (hours) of dissociation from HLA-B*57:01fos, Comp+Tapasin+Abacavir: as Comp; for Half life (hours) of dissociation from HLA-B*57:01fos, Comp+Abacavir: plus 60 µM abacavir; for Half life (hours) of dissociation from HLA-B*57:01fos, Comp+Abacavir / Half life (hours) of dissociation from HLA-B*57:01fos, Comp+Tapasin / Half life (hours) of dissociation from HLA-B*57:01fos, Comp+Tapasin+Abacavir / Half life (hours) of dissociation from HLA-B*57:01fos, Comp: fluorescence polarisation, 25°C, one-phase decay, plateau 50 mP (unconstrained for RVD), 3-4 replicates; for Half life (hours) of dissociation from HLA-B*57:01fos, Comp+Tapasin: plus conjugated tapasin-jun-ERp57 C60A (mostly 0.254 µM); for Half life (hours) of dissociation from HLA-B*57:01fos, Comp+Tapasin+Abacavir: plus tapasin-jun-ERp57 C60A and 60 µM abacavir; for Rate of dissociation from HLA-B*57:01fos (in words): competing peptide only; for Half life (hours) of dissociation from HLA-B*57:01fos, Comp: PBS + 0.5 mg/ml bovine-gamma-globulin, 20 fold excess human β2m, excess unlabelled competing peptide only
T1 construct: Fos leucine zipper (C); made in house
Method: (§1) Peptide loaded HLA-B*57:01fos complexes were obtained as described ([50]) by refolding solubilised inclusion bodies of HLA-B*57:01fos heavy chains with human β 2m and UV-labile HLA-B57-conditional peptide ligand.
(§2) Fluorescence polarisation measurements were taken using a SpectraMax i3x Multi-Mode Microplate Reader (Molecular Devices) with rhodamine detection cartridge. All experiments were conducted at 25°C and used PBS supplemented with 0.5 mg/ml bovine-gamma-globulin (Sigma), and a 20 fold molar excess of human β 2m (Fitzgerald) in a volume of 60 µl. Binding of TAMRA-labelled peptides is reported in millipolarisation units (mP) and is obtained from the equation mP = 1,000 × (S – G × P)/(S + G × P), where S and P are background subtracted fluorescence count rates (S = polarisation emission filter is parallel to the excitation filter; P = polarisation emission filter is perpendicular to the excitation filter) and G (grating) is an instrument and assay dependent factor.
HLA-B*57:01fos molecules were UV exposed and then allowed to bind fluorescent peptides overnight at room temperature. Florescence polarisation measurements were taken after the addition of excess non-labelled competitor peptide (otherwise identical to the labelled peptide) in the absence or presence of 60 µM abacavir or conjugated tapasin-jun-ERp57 C60A proteins. […] Most experiments used 0.55 µM HLA-B*57:01fos molecules, but some experiments involved different preparations of HLA-B*57:01fos which required higher concentrations of HLA-B*57:01fos, up to a maximum of 1.38 µM HLA-B*57:01fos, to achieve equivalent polarisation levels.
Supplementary Table 2. Dissociation rates of TAMRA-labelled peptides from HLA-B*57:01fos molecules. The rates at which the indicated peptides dissociated from HLA-B*57:01fos molecules in the presence of excess unlabelled competing peptide (“Comp”), abacavir and tapasin (data shown in figure 7) was measured by Graphpad Prism v9.1.0. The dissociation rates were calculated by performing non-linear regression, using the one-phase decay method, with plateaus constrained to be equal to 50 mP (apart from being unconstrained for RVD peptide). The number of experimental replicates, and the standard deviation in the measured dissociation rates across the replicates is also presented.

HLA-B*57:01fos [2] = target: T1, HLA-B*57:01fos; test: Fluorescence polarisation association rate measurements; assay type: binding; conditions: 25°C; for Effect of combined abacavir and tapasin on binding of fluorescent peptide to HLA-B*57:01fos: 60 µM abacavir + tapasin-jun; for Effect of combined abacavir and tapasin on binding of fluorescent peptide to HLA-B*57:01fos / Effect of abacavir on binding of fluorescent peptide to HLA-B*57:01fos / Effect of tapasin on binding of fluorescent peptide to HLA-B*57:01fos: fluorescence polarisation; for Effect of abacavir on binding of fluorescent peptide to HLA-B*57:01fos: 60 µM abacavir; for Intrinsic binding of fluorescent peptide to UV exposed HLA-B*57:01fos: peptide alone, fluorescence polarisation (mP); for Effect of tapasin on binding of fluorescent peptide to HLA-B*57:01fos: tapasin-jun or tapasin-jun ERp57 C60A conjugate
Method: as §1, §2
Peptide-receptive HLA-B*57:01fos were obtained by exposing HLA-B*57:01fos complexes loaded with UV labile conditional peptide ligand to ~360 nm light for 20 min at 4°C (“UV exposed” hereafter). The binding of fluorescent peptides to UV exposed HLA-B*57:01fos was monitored in the absence or presence of excess (60 µM) abacavir or tapasin-jun or tapasin-jun ERp57 C60A conjugate. […] Most experiments used 0.55 µM HLA-B*57:01fos molecules, but a minority of experiments involved different preparations of HLA-B*57:01fos which required higher concentrations of HLA-B*57:01fos, up to a maximum of 3.18 µM HLA-B*57:01fos, to achieve equivalent polarisation levels.

HLA-B*57:01 [3] = target: T2, HLA-B*57:01 (Homo sapiens, UniProt P01889, D201E/D98Y/E176V/E187L/E204Q/E69M/E70A/G107R/I90N/K202T/L105A/L119I/N104I/N87E/Q89R/Q94S/R106L/R155S/R180L/R86G/S101N/S121V/S35A/S48A/T118I/V36M/Y140S/Y91M); test: LC-MRM-MS quantitation of HLA ligands and co-purified abacavir from abacavir treated C1R.B*57:01 cells; assay type: cell-based; conditions: for Abacavir dependence: LC-MRM-MS detection, classification of the peptide based on abacavir dependency; for Linear regression slope: linear regression of LC-MRM-MS peptide abundance over abacavir treatment time
HLA-B*57:01 [4] = target: T2, HLA-B*57:01; parameters: method as in Illing et al., Nature 2012; conditions: ref Illing et al., Nature 2012, cited from earlier work; for HLA-B*57:01 previous observation by LC-MS/MS, Abacavir treated: abacavir treated cells

Row | Substance | Effect of abacavir on dissociation of the peptide from HLA-B*57:01fos (HLA-B*57:01fos [1]) | Half life (hours) of dissociation from HLA-B*57:01fos, Comp+Abacavir (HLA-B*57:01fos [1]) | Half life (hours) of dissociation from HLA-B*57:01fos, Comp+Tapasin (HLA-B*57:01fos [1]) | Half life (hours) of dissociation from HLA-B*57:01fos, Comp+Tapasin+Abacavir (HLA-B*57:01fos [1]) | Rate of dissociation from HLA-B*57:01fos (in words) (HLA-B*57:01fos [1]) | Half life (hours) of dissociation from HLA-B*57:01fos, Comp (HLA-B*57:01fos [1]) | Effect of combined abacavir and tapasin on binding of fluorescent peptide to HLA-B*57:01fos (HLA-B*57:01fos [2]) | Effect of abacavir on binding of fluorescent peptide to HLA-B*57:01fos (HLA-B*57:01fos [2]) | Intrinsic binding of fluorescent peptide to UV exposed HLA-B*57:01fos (HLA-B*57:01fos [2]) | Effect of tapasin on binding of fluorescent peptide to HLA-B*57:01fos (HLA-B*57:01fos [2]) | Tapasin dependent enhancement of dissociation (HLA-B*57:01fos [1]; tapasin-jun-ERp57 C60A with competing peptide) | Category of abacavir impact on peptide abundance in the immunopeptidome (HLA-B*57:01 [3]; C1R.B*57:01, 35 µM abacavir 0-16 h or constant, linear regression of normalised abundance, three replicates) | Abacavir dependence (HLA-B*57:01 [3]) | Linear regression slope (HLA-B*57:01 [3]) | HLA-B*57:01 previous observation by LC-MS/MS, Abacavir treated (HLA-B*57:01 [4]) | HLA-B*57:01 previous observation by LC-MS/MS, Untreated (HLA-B*57:01 [4]; untreated cells)
1 | RVDPAK*GLFYF | modestly enhanced | 0.26 h | 0.35 h | 0.26 h | minutes | 0.31 h | tapasin partially mitigated this effect | enhanced by abacavir during the first hour | poor binding | – | – | – | – | – | – | –
2 | ATFK*GIVRAI | pronounced decrease in the dissociation | 71.63 h | 2.04 h | 33.59 h | – | 2.34 h | – | less pronounced | – | only slightly enhanced binding | – | – | – | – | – | –
3 | ITTKAISRW [canonical peptide ligand of HLA-B*57:01] | – | – | – | – | – | – | – | enhanced the binding | – | – | – | – | – | – | – | –
4 | VTKK*TYEIW [TAMRA labelled canonical HLA-B*57:01 peptide] | minimal impact on the dissociation | 373.30 h | 207.90 h | 198.40 h | hundreds of hours | 374.80 h | did not enhance the binding | – | bound to HLA-B*57:01 molecules | catalysed binding of the VTK and ITT peptides to a greater extent than abacavir | – | – | – | – | – | –
5 | KTFK*DVGNLL | pronounced decrease in the dissociation | 814.20 h | – | 62.89 h | – | 402.30 h | occurred faster than in the presence of tapasin or abacavir alone | binding strongly enhanced | limited intrinsic ability to bind | binding strongly enhanced | significant | – | – | – | – | –
6 | LTTK*LTNTNI | – | – | – | – | – | – | – | – | – | did not affect the binding | – | – | – | – | – | –
7 | TSLK*SRVTI | pronounced decrease in the dissociation | 22.41 h | 5.12 h | 10.38 h | – | 7.41 h | occurred faster than in the presence of tapasin or abacavir alone | binding strongly enhanced | limited intrinsic ability to bind | binding strongly enhanced | – | – | – | – | – | –
8 | VTKKTYEIW [non-labelled canonical HLA-B*57:01 ligand] | – | – | – | – | – | – | – | enhanced the binding | – | – | – | Minimal | Minimal | 0.0161 | + (+ (< 5% FDR)) | + (+ (< 5% FDR))
9 | GSFGKVFLV | – | – | – | – | – | – | – | – | – | – | – | – | Dependent | 0.0515 | + (+ (< 5% FDR)) | –
10 | VSVKDIQAHL | – | – | – | – | – | – | – | – | – | – | – | – | Dependent | 0.0241 | + (+ (< 5% FDR)) | –

From article PMC8170132, “Kinetics of Abacavir-Induced Remodelling of the Major Histocompatibility Complex Class I Peptide Repertoire” (Frontiers in Immunology, 2021)
